# Data reported in patent US7060657B2, “Combinations of cyclohexanedione oxime herbicides and safeners” (Bayer CropScience GmbH, priority 2002, dated 2006).
# How the values were obtained:
# Type in all cases: in vivo
# [1] = test system: Hordeum vulgare (summer barley); test: Post-emergence field trials, selectivity in barley (Examples 2-4)
# Procedure: (§1) The numbers in the columns refer to the percentage damage to the crop or weed.
# (§2) Winter wheat was grown outdoors on plots under natural outdoor conditions, and seeds of typical harmful plants were laid out. Treatment with the herbicide (A), the safener (B) and the herbicide-safener combination (A)+(B) was carried out after the harmful plants had emerged and the wheat was in the growth stage between 3 and 5 leaves. The effect of the composition was assessed 28 days after treatment by scoring visually in comparison with untreated controls.
# (§3) Field trials were carried out according to the above Example 1 but using the crops barley and durum wheat and applying a mixture of clethodim and mefenpyr-diethyl.
# (§4) Field trials were carried out according to the above Example 2 and applying a mixture of clethodim and fenoxaprop-P-ethyl plus mefenpyr-diethyl.
# (§5) Field trials were carried out according to the above Example 2 and applying a mixture of tepraloxydim and mefenpyr-diethyl, or tepraloxydim and fenoxaprop-P-ethyl plus mefenpyr-diethyl.
# [2] = test system: Triticum durum desf. (durum wheat); test: Post-emergence field trials, selectivity in durum wheat (Examples 2-4)
# Procedure: as §1, §2, §3, §4, §5
# Alopecurus myosuroides = test: Post-emergence field trial, effect on weeds (Example 1); conditions: 28 days after treatment
# Procedure: as §1
# (§6) Post-Emergence Effect on Weeds and Selectivity in Winter Wheat (Field Trials)
# as §2
# (§7) The percentage control of the weed species are shown in comparison with the expected values given in parentheses.
# Phalaris minor = test: as above; conditions: 28 days after treatment
# Procedure: as §1, §6, §2, §7
# [3] = test system: Triticum aestivum (winter wheat); test: Post-emergence field trial, selectivity in winter wheat (Example 1); conditions: 28 days after treatment
# Procedure: as §1, §6, §2
# [4] = test system: Triticum aestivum (winter wheat); test: Post-emergence field trial on winter wheat (Example 5); conditions: 3-5 leaf growth stage, 21 days after treatment
# Procedure: as §2, with “The numbers in the columns refer to the percentage damage to the crop or weed. Winter” for “Winter”, “controls. Field trials were carried out according to the above Example 1 and applying a mixture of cycloxydim and fenoxaprop-P-ethyl+mefenpyr-diethyl to winter wheat and the weed Avena fatua at the 3–5 leaf growth stage. Assessment was 21 days after treatment.” for “controls.”
# Avena fatua = test: Post-emergence field trial on weeds (Example 5); conditions: 3-5 leaf growth stage, 21 days after treatment
# Procedure: as §2, with “The numbers in the columns refer to the percentage damage to the crop or weed. Winter” for “Winter”, “controls. Field trials were carried out according to the above Example 1 and applying a mixture of cycloxydim and fenoxaprop-P-ethyl+mefenpyr-diethyl to winter wheat and the weed Avena fatua at the 3–5 leaf growth stage. Assessment was 21 days after treatment.” for “controls.”
compound,measurement,setting,value
"CCC(=NOC/C=C/Cl)C1=C(O)CC(C2CCOCC2)CC1=O (racemic) [(A7), (EZ)-(RS)-2-{1-[(2E)-3-chloroallyloxyimino]propyl}-3-hydroxy-5-perhydropyran-4-ylcyclohex-2-en-1-one]",Phytotox (%) on HORVS,[1]; 8.25 g ai/ha,78%
same,Phytotox (%) on TRZDU,[2]; 8.25 g ai/ha,70%
"CCCC(=NOCC)C1=C(O)CC(CC(C)SCC)CC1=O (racemic) [Compound A6, (±)-(EZ)-2-(1-ethoxyiminobutyl)-5-[2-(ethylthio)propyl]-3-hydroxycyclohex-2-enone]",Phytotox (%) on ALOMY,Alopecurus myosuroides; 72 g a.i./ha,70%
same,Phytotox (%) on PHAMI,Phalaris minor; 72 g a.i./ha,55%
same,Phytotox (%) on TRZAW,[3]; 72 g a.i./ha,28%
"CCCC(=NOCC)C1=C(O)CC(C2CCCSC2)CC1=O (racemic) [Compound A5, (±)-2-[1-(ethoxyimino)butyl]-3-hydroxy-5-thian-3-ylcyclohex-2-enone]",Phytotox (%) on TRZAW,[4]; 40 g a.i./ha,16%
same,Phytotox (%) on AVEFA,Avena fatua; 40 g a.i./ha,65%
"CCSC(C)CC1CC(=O)C(/C(CC)=N/OC/C=C/Cl)=C(O)C1 (racemic) [(A4), (±)-2-[(E)-1-[(E)-3-chloroallyloxyimino]propyl]-5-[2-(ethylthio)propyl]-3-hydroxycyclohex-2-enone]",Phytotox (%) on HORVS,[1]; 7.5 g ai/ha,51%
same,Phytotox (%) on HORVS,[1]; 15 g ai/ha,67%
same,Phytotox (%) on TRZDU,[2]; 7.5 g ai/ha,32%
same,Phytotox (%) on TRZDU,[2]; 15 g ai/ha,56%
"CCOC(=O)C1=NN(c2ccc(Cl)cc2Cl)C(C)(C(=O)OCC)C1 (stereo not drawn) [(B1), ethyl 1-(2,4-dichlorophenyl)-5-(ethoxycarbonyl)-5-methyl-2-pyrazoline-3-carboxylate]",Phytotox (%) on ALOMY,Alopecurus myosuroides; 11 g a.i./ha,0%
same,Phytotox (%) on ALOMY,Alopecurus myosuroides; 45 g a.i./ha,0%
same,Phytotox (%) on PHAMI,Phalaris minor; 11 g a.i./ha,0%
same,Phytotox (%) on PHAMI,Phalaris minor; 45 g a.i./ha,0%
same,Phytotox (%) on HORVS,[1]; 100 g ai/ha,0%
same,Phytotox (%) on TRZAW,[4]; 71 g a.i./ha,0%
same,Phytotox (%) on TRZDU,[2]; 100 g ai/ha,0%
same,Phytotox (%) on TRZAW,[3]; 11 g a.i./ha,0%
same,Phytotox (%) on TRZAW,[3]; 45 g a.i./ha,0%
same,Phytotox (%) on AVEFA,Avena fatua; 71 g a.i./ha,0%
